Test results taken from US11607422B2, “Uttroside B and derivatives thereof as therapeutics for hepatocellular carcinoma” (Rajiv Gandhi Centre for Biotechnology, an Autonomous …, priority 2016, dated 2023).

Legend:
[1] = test system: caspases 8, 9 & 7 and PARP in HepG2 cells; experiment: Western blot of caspase activation and PARP cleavage in HepG2 cells; assay type: cell-based, human
Description: FIGS. 3A-3F show Uttroside B induces caspase-dependent apoptosis leading to PARP cleavage in HepG2 cells while being independent of cell cycle. FIGS. 3A-3E are images of Western blots showing caspase activation in HepG2 cells. Whole-cell extracts were prepared after treating HepG2 cells with indicated concentrations of Uttroside B for 48 h, the whole cell lysate was resolved on a 15% gel and subjected to western blotting using antibodies against the caspases 8, 9 & 7 detected by ECL. HepG2 cells were treated with Uttroside B for 48 h at different concentrations and the whole cell lysate was resolved on a 10% gel, immunoblotted against anti-PARP and detected by ECL. […] HepG2 cells were treated with Uttroside B for 48 h, stained with propidium iodide and the cell cycle analysis was done using fluorescence activated cell sorter. Curcumin 25 μM (24 h) is used as positive control.
Western blot analysis. Approximately 0.5×10^6 cells were grown on 60 mm culture plates and exposed to drugs as indicated for the desired time. The cells were then scraped out, washed in ice cold 1× PBS and pelleted down at 13000 rpm for 2 min. The pelleted cells were suspended in 150 μL of ice-cold whole cell lysis buffer[(20 mMTris of pH 7.4, 250 mM NaCl, 2 mM EDTA, 0.1% Triton, 1 mM DTT (1,4-dithiothreitol), 0.5 mM PMSF, 4 mM sodium orthovanadate, aprotinin (5 mg m/L) and leupeptin (5 mg m/L)] and kept in ice for 30 min, with intermittent vortexing every 5 min. After incubation, the lysate was centrifuged at 13000 rpm for 10 min at 4° C. and the supernatant was collected. The total protein content in the lysate was estimated by Bradford's method, and was then denatured by boiling with 5× loading dye before separating the proteins by SDSpolyacrylamidegel electrophoresis (SDS-PAGE). Following electrophoresis, the polyacrylamide gel and a PVDF membrane were equilibrated with Towbins buffer (1 L, 25 mM Tris, 192 mM glycine, 20% (v/v) methanol (pH 8.3) for 15-30 min and the separated proteins were electro-transferred to PVDF membrane (Hybond-P, GE Healthcare Life science) using Bio-Rad Mini PROTEAN III wet blot apparatus at 100 V for 2 h at cold conditions. After the transfer, the membrane was rinsed with TBS-T (20 mM Tris pH 7.5, 150 mM NaCl, 0.1% Tween 20) buffer and stained with Ponceau-S to ensure uniform transfer. After washing off the Ponceau stain with TBST, the membrane was exposed to 5% fat free milk in TBST buffer for 1 h at room temperature to block the nonspecific binding of antibodies, followed by overnight incubation with the primary antibody [1:1000 dilution] in 3% BSA in TBST buffer at 4° C. […]

[2] = test system: HepG2 cells; experiment: Acridine orange staining for acidic vesicular organelles; assay type: cell-based, human; details: HepG2, cytotoxic concentration, 24 h
Description: The presence of acidic vesicles, which are characteristics of autophagosome can be analyzed using this method. Acridine orange stains the nucleus green and the acidic vesicular organellae (AVOs) as red.^32 To detect the presence of AVOs in HepG2 cells, 5×10^3 were seeded in 96 well plates, and treated with Uttroside B and incubated for 24 h. The cells were rinsed with 1× PBS twice. The treated cells were then stained with acridine orange, which was added at a final concentration of 1 μg/mL and incubated for 15 min and immediately photographed using a fluorescent microscope.
FIG. 18 is a representative image showing that Uttroside B induces acidic vacuole formation in HepG2 cells by Acridine orange staining. To further confirm the autophagic induction by Uttroside B in HepG2 cells, the cells were exposed to cytotoxic concentration of Uttroside B for a period of 24 h and stained with Acridine orange dye. AO orange stains nucleus green and acidic vesicular organelle, mainly autophagosome, bright red. It crosses into acidic compartments and becomes protonated. The protonated dye stacks and stacked acridine orange emits in the red range.

[3] = HepG2, 48 h, concentration dependent

C[C@H](CC[C@@]1(O)O[C@H]2C[C@H]3[C@@H]4CC[C@H]5C[C@@H](O[C@@H]6O[C@H](CO)[C@H](O[C@@H]7O[C@H](CO)[C@@H](O)[C@H](O[C@@H]8OC[C@@H](O)[C@H](O)[C@H]8O)[C@H]7O[C@@H]7O[C@H](CO)[C@@H](O)[C@H](O)[C@H]7O)[C@H](O)[C@H]6O)CC[C@]5(C)[C@H]4CC[C@]3(C)[C@H]2[C@@H]1C)CO[C@@H]1O[C@H](CO)[C@@H](O)[C@H](O)[C@H]1O [Uttroside B]
cleavage of PARP ([1]; HepG2, 48 h): strong cleavage of the mother band to its daughter bands
cleavage of procaspase 7 [1, 3]: procaspase 7 into its active fragment (p-20) were also enhanced
cleavage of procaspase 8 [1, 3]: increase in the cleavage of procaspase 8 to its active fragments
cleavage of procaspase 9 ([1]; HepG2, Western blot): time-dependent and concentration-dependent increase in the cleavage of procaspase 9
acidic vacuole formation (Acridine orange) [2]: AO positivity, a preliminary indication of increased autophagosomes was clearly visible
